Source: patent US9320771B2, “TTO-based wide spectrum therapeutics, disinfectants and anesthetics for use in aquaculture” (priority 2006, dated 2016)
Read-outs that look alike come from different tables or passages of the source.

Tests used:
[1] = test system: atypical Aeromonas salmonicida; test: Culture and sensitivity test, zones of inhibition on T.S.A. culture media; format: cell-based; conditions: 24 h at 24° C.; for zone of inhibition at 30 µg/disc: Aeromonas salmonicida, 24 h, read-out: Zones of inhibition (mm) after 24 h
Experimental: Four TTO-based compositions of the present invention, namely Compositions A-D (See Example 7) were evaluated in their efficacy to inhibit and prevent growth of atypical Aeromonas salmonicida, the causative agent of ulcerative disease of carps on T.S.A. culture media. Every culture plate was inoculated with Gram-negative Aeromonas Bacteria obtained from ulcerated Goldfish. Plates were sterile cultures incubated for 24 h at a temperature of 24° C. Inhibition of the TTO-based compositions was compared simultaneously with 2 familiar anti-bacterial medications, namely (i) Tetracycline (30 μg per disc); and (ii), Norfloxacin (10 30 μg per disc). Comparison discs were supplemented in the lab with 20 to 30 μg of the TTO-based compositions each: 50% Composition D; 50% Composition C; and 66% Composition B (See Example 7).

[2] = test system: Red-clawed Crayfish (Cherax Quadricarinatus); test: Growth rate of Red-clawed Crayfish; format: in vivo; conditions: compared to the control group as base reference
Experimental: In a separate experiment the growth rate of Red-clawed Crayfish treated with the TTO formulation was tested in comparison to an untreated tank and to two other disinfecting agents: formaldehyde and sodium bromide (e.g., commercially available Bromex™).

[3] = test system: viral diseases of fish; conditions: cited from earlier work

In the case of `CCn1cc(C(=O)O)c(=O)c2cc(F)c(N3CCNCC3)cc21` [Norfloxacin], the “Zones of inhibition (mm) after 24 h” value ([1]; 10 30 μg per disc, listed as Nx.) is reported as 20 mm and the zone of inhibition at 30 µg/disc ([1]; 10 30 μg per disc) is reported as 28 mm.

In the case of `CN(C)[C@@H]1C(O)=C(C(N)=O)C(=O)[C@@]2(O)C(O)=C3C(=O)c4c(O)cccc4[C@@](C)(O)[C@H]3C[C@@H]12` [Tetracycline], the “Zones of inhibition (mm) after 24 h” value ([1]; 30 μg per disc) is reported as 22 mm and the zone of inhibition at 30 µg/disc ([1]; 30 μg per disc) is reported as 18 mm.

For `C=O` [formaldehyde], the growth rates [2] was “about 0.08 % per day”.

In the case of `CN(C)c1ccc(C(=C2C=CC(=[N+](C)C)C=C2)c2ccccc2)cc1` [malachite green], the “effectiveness against viral diseases of fish” value [3] is given as “not effective”.
